Assay results published in US20250059162A1, “MULTI-PROTEIN DEGRADATION AGENT HAVING IMIDE SKELETON” (SUZHOU KINTOR PHARMACEUTICALS, INC., priority 2021, published 2025).
pIC50: −log10 of the molar value.

Tests used:
Format in all cases: cell-based
HL60 cells = experiment: Anti-proliferation on HL60 cells (CellTiter-Glo, 3 days); settings: Homo sapiens, HL-60, 72 h, 3 days incubation, CTG luminescence, IC50 by XLfit, read-out: HL60 cells Proliferation inhibitory activity
Summary of the method: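 Log-phase cells were plated at 20000 cells/well and treated with compound dilutions in RPMI-1640 for 3 days, with 0.1% DMSO controls. Proliferation was read by CellTiter-Glo luminescence. IC50 was fitted from the inhibition rates.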

c-Myc protein = molecular target: T1, c-Myc protein (Homo sapiens, UniProt P01106); experiment: c-Myc protein degradation in HL60 cells (Western blot); settings: for remaining activity at 0.01 µM: HL-60, compound at 10 nM, 24 h, gray value relative to Ctrl (DMSO), read-out: Remaining amount of c-Myc protein (@10 nM/Ctrl)
T1 construct: degradation of myc and GSPT1 proteins in HL60 cells; endogenous in cells; host or cells: HL60
T1 sequence (P01106 whole entry): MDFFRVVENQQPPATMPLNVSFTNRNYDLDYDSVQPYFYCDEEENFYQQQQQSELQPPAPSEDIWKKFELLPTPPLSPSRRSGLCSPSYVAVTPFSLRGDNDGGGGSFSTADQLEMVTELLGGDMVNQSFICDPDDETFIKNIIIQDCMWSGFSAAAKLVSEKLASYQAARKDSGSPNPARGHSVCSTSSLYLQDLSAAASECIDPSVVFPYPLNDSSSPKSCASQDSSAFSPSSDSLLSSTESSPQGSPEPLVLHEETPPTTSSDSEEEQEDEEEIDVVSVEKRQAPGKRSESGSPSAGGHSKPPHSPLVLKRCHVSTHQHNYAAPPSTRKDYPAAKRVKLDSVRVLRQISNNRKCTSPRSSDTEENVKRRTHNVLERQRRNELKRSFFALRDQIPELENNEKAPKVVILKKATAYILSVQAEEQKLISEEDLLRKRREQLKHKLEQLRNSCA
Procedure: (§1) HL60 cells in the exponential growth phase were digested and plated into a 6-well plate at 1×10^6 cells per well. The cell culture medium was RPMI-1640 (meilunbio, MA0215). After a day of adherent growth of the cells, the compound of the present invention was added as a test drug for culture, and proteins were extracted 24 h later (Ctrl meant adding only DMSO at the same volume).
(§2) In the 6-well plate, the culture medium RPMI-1640 (meilunbio, MA0215) was removed, and the cells were washed once with PBS, digested with trypsin, and centrifuged and collected separately into 1.5 mL centrifuge tubes. 100 μL of RIPA lysis buffer (containing 100 μM PMSF) was added to each tube, mixed thoroughly, allowed to stand on ice for 30 min and then centrifuged at 12000 rpm at 4° C. using a centrifuge for 20 min. The supernatant was used for Western blotting experiments. The sample can be stored at −80° C.
(§3) By using the BCA protein concentration determination kit (from Thermo Fisher, Cat. No. 23225), the BSA standard determination solution and the samples to be tested (the samples to be tested can be diluted and then tested) were prepared according to the table A below. Samples were added to the 96-well plate. Each well was supplemented with PBS to 20 μL, and then 200 μL of BCA working solution (prepared according to the kit) was added respectively and mixed evenly. The plate was placed at 60° C. for 10 min, and then the absorbance at 562 nm was detected. After the reading was recorded, a standard curve was plotted using concentration gradients of the standards, and the absorbance of the samples was substituted to calculate the protein concentration of the samples.
(§4) • 2.1 Protein denaturation: RIPA protein buffer (purchased from Solarbio, Cat. No. R0010) and 5× Loading Buffer (SDS, glycerin, bromophenol blue, TRIS) (purchased from Solarbio, Cat. No. P1040) were added, and the protein samples were denatured at 100° C. for 5 min. • 2.2 Sample loading and electrophoresis: 10% precast gel and the corresponding electrophoresis buffer were used. The same mass of protein sample and protein ladder (purchased from thermo, Cat. No. 26617) were loaded into each well, and electrophoresis at 200 V was performed for 30 min. • 2.3 […]: The gel was excised to remove the excess part. Transferring to PVDF membrane was performed by the wet transfer method (before use, it was necessary to activate the PVDF membrane with methanol for 1 min) at 300 mA for 2 h, during which a lot of heat was generated, and thus cooling with an ice box was required. • 2.4 Blocking: After the transferring, the PVDF membrane was placed in 5% skim milk and blocked with shaking at room temperature for 1 h. • 2.5 Incubating with primary antibody: The PVDF membrane was cut according to the molecular weight indicated on the marker and placed in c-myc (purchased from abcam, Cat. No. ab32072), or GSPT1 (purchased from abcam, Cat. No. ab234433), or CK1α (purchased from abcam, Cat. No. ab206652), or IKZF2 (purchased from proteintech, Cat. No. 13554-1-AP), and GAPDH (purchased from CST, Cat. No. #97166) primary antibodies. The antibodies were diluted with TBST buffer (a solution prepared from TRIS, KCL and NaCl and adjusted to pH 7.4 with hydrochloric acid, and Tween 20 was added) at a ratio of 1:1000, and blocked overnight on a shaker at 4° C. • 2.6 Incubating with secondary antibody: The PVDF membrane incubated with the primary antibody was washed with TBST for 3 times, each time for 10 min. After washing, the membrane was placed in the secondary antibody of the corresponding species, and incubated at room temperature in a shaker for 2 h. • 2.7 Washing membrane and exposure: After incubated with the secondary antibodies, the membrane was washed 3 times with TBST on a shaker, 10 minutes each time. […]

GSPT1 protein = molecular target: T2, GSPT1 protein (Homo sapiens, UniProt P15170); experiment: GSPT1 protein degradation in HL60 cells (Western blot); settings: for remaining GSPT1 protein at 0.01 µM: HL-60, compound at 10 nM, 24 h, gray value relative to Ctrl (DMSO), read-out: Remaining amount of GSPT1 protein (@10 nM/Ctrl)
T2 construct: degradation of myc and GSPT1 proteins in HL60 cells; endogenous in cells; host or cells: HL60
T2 sequence (P15170 whole entry): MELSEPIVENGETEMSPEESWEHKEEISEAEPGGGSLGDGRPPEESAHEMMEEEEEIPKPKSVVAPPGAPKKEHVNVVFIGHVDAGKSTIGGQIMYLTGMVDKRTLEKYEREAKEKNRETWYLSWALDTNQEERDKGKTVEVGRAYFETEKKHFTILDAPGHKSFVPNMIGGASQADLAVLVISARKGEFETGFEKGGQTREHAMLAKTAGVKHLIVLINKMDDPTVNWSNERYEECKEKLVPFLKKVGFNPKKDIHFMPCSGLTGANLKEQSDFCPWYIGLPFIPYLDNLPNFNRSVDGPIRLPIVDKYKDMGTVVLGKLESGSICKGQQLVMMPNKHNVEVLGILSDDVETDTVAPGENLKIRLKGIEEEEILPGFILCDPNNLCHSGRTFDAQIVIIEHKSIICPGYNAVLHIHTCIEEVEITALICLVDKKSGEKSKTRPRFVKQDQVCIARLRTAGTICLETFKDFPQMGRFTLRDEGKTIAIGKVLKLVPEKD
Procedure: as §1, §2, §3, §4

| SMILES | pIC50 (HL60 cells) | Degradation of c-Myc protein in HL60 cells at 300 nM (FIG. 2, FIG. 3, in words) (c-Myc protein) | Degradation of GSPT1 protein in HL60 cells at 100 nM (FIG. 3, in words) (GSPT1 protein) | Degradation of GSPT1 protein in HL60 cells at 300 nM (FIG. 2, FIG. 3, in words) (GSPT1 protein) | remaining activity at 0.01 µM (c-Myc protein) | remaining GSPT1 protein at 0.01 µM (GSPT1 protein) |
| --- | --- | --- | --- | --- | --- | --- |
| N#Cc1cc(CNCC2CCN(c3ncc(-c4cccc(Cl)c4)cc3C(F)(F)F)CC2)ccc1C(=O)NC1CCC(=O)NC1=O (stereo not shown) [Compound A162] | 6.64 | simultaneously degrade both GSPT1 and c-Myc proteins | significantly degrade GSPT1 protein | simultaneously degrade both GSPT1 and c-Myc proteins |  |  |
| O=C1CCC(N2Cc3cc(CNCC4CCN(c5ncc(-c6ccc(F)cc6)cc5F)CC4)ccc3C2=O)C(=O)N1 (stereo not shown) [Compound A109] | 8.21 |  |  |  | 3% | 6% |
| Cc1cccc(-c2cnc(N3CCC(F)(CNCc4ccc5c(c4)CN(C4CCC(=O)NC4=O)C5=O)CC3)c(C(F)(F)F)c2)c1 (stereo not shown) [Compound A85] | 9.00 |  |  |  | 8% | 3% |
| O=C1C[C@H](N2Cc3cc(CNCC4CCN(c5ncc(-c6cccc(Cl)c6)cc5C(F)(F)F)CC4)ccc3C2=O)C(=O)N1 [Compound A169] | 7.33 | simultaneously degrade both GSPT1 and c-Myc proteins |  | significantly degrade GSPT1 protein | 105% | 65% |
| Cc1cccc(-c2cnc(N3CCC(CNCc4ccc5c(c4)CN(C4CCC(=O)NC4=O)C5=O)CC3)c(C(F)(F)F)c2)c1 (stereo not shown) [Compound A94] | 10.00 |  |  |  | 0% | 0% |
| O=C1CCC(N2Cc3cc(CNCC4CCN(c5ncc(-c6cccc(F)c6)cc5C(F)(F)F)CC4)ccc3C2=O)C(=O)N1 (stereo not shown) [Compound A93] | 8.80 |  |  |  | 12% | 0% |
| O=C1CCC(N2Cc3cc(CNCC4CCN(c5ncc(-c6cccc(Cl)c6)cc5C(F)(F)F)CC4)c(F)cc3C2=O)C(=O)N1 (stereo not shown) [Compound A140] | 7.77 |  |  |  | 95% | 47% |
| O=C1CCC(N2Cc3cc(CNCC4CCN(c5ccc(-c6cccc(Cl)c6)nc5)CC4)ccc3C2=O)C(=O)N1 (stereo not shown) [Compound A71] | > 9.70 |  |  |  | 26% | 0% |
| O=C1CCC(N2Cc3cc(CNCC4CCN(c5ncc(-c6ccccc6Cl)cc5F)CC4)ccc3C2=O)C(=O)N1 (stereo not shown) [Compound A72] | 7.20 |  |  |  | 16% | 0% |
| O=C1CCC(N2Cc3cc(CCCC4CCN(c5ncc(-c6cccc(Cl)c6)cc5C(F)(F)F)CC4)ccc3C2=O)C(=O)N1 (stereo not shown) [Compound A134] | 6.65 | simultaneously degrade both GSPT1 and c-Myc proteins | significantly degrade GSPT1 protein | simultaneously degrade both GSPT1 and c-Myc proteins |  |  |
| O=C1CCC(N2Cc3cc(CNCC4CCN(c5ncc(-c6cccc(F)c6)cn5)CC4)ccc3C2=O)C(=O)N1 (stereo not shown) [Compound A67] | 8.70 |  |  |  | 19% | 25% |
| O=C1CCC(N2Cc3cc(CNCC4CCN(c5ncc(-c6ccccc6F)cc5F)CC4)ccc3C2=O)C(=O)N1 (stereo not shown) [Compound A107] | 8.04 |  |  |  | 46% | 1% |
| N#Cc1cccc(-c2cnc(N3CCC(CNCc4ccc5c(c4)CN(C4CCC(=O)NC4=O)C5=O)CC3)nc2)c1 (stereo not shown) [Compound A69] | 7.66 |  |  |  | 30% | 53% |
| O=C1CCC(N2Cc3cc(CNC(=O)C4CCN(c5ncc(-c6cccc(Cl)c6)cn5)CC4)ccc3C2=O)C(=O)N1 (stereo not shown) [Compound A65] | > 9.70 |  |  |  | 0% | 14% |
| N#Cc1cccc(-c2cnc(N3CCC(CNCc4ccc5c(c4)CN(C4CCC(=O)NC4=O)C5=O)CC3)c(F)c2)c1 (stereo not shown) [Compound A111] | 8.89 |  |  |  | 6% | 2% |
| COc1cccc(-c2cnc(N3CCC(CNCc4ccc5c(c4)CN(C4CCC(=O)NC4=O)C5=O)CC3)c(C(F)(F)F)c2)c1 (stereo not shown) [Compound A95] | > 9.70 |  |  |  | 0% | 0% |
| O=C1CCC(N2Cc3cc(CNCC4CCN(c5cnc(-c6cccc7ccccc67)cn5)CC4)ccc3C2=O)C(=O)N1 (stereo not shown) [Compound A63] | 9.70 |  |  |  | 19% | 5% |
| O=C1CCC(N2Cc3cc(CNCC4CCN(c5ncc(-c6cccc(Cl)c6)cc5Cl)CC4)ccc3C2=O)C(=O)N1 (stereo not shown) [Compound A75] | > 9.70 |  |  |  | 0% | 0% |
| O=C1CCC(N2Cc3cc(CNCC4CCN(c5ncc(-c6cccc7ccccc67)s5)CC4)ccc3C2=O)C(=O)N1 (stereo not shown) [Compound A61] | 9.52 |  |  |  | 0% | 4% |
| O=C1CCC(N2Cc3cc(CNCC4CCN(c5ncc(-c6cccc(C(F)(F)F)c6)cc5F)CC4)ccc3C2=O)C(=O)N1 (stereo not shown) [Compound A110] | > 9.70 |  |  |  | 3% | 0% |
| O=C1CCC(N2Cc3cc(CNCC4CCN(c5cnc(-c6cccc(Cl)c6)cn5)CC4)ccc3C2=O)C(=O)N1 (stereo not shown) [Compound A102] | 9.30 |  |  |  | 0% | 0% |
| O=C1CCC(N2Cc3cc(CNCC4CCN(c5ccc(-c6cccc(Cl)c6)cn5)CC4)ccc3C2=O)C(=O)N1 (stereo not shown) [Compound A70] | > 9.70 |  |  |  | 216% | 23% |
| COc1cc(-c2cccc(Cl)c2)cnc1N1CCC(CNCc2ccc3c(c2)CN(C2CCC(=O)NC2=O)C3=O)CC1 (stereo not shown) [Compound A77] | > 9.70 |  |  |  | 50% | 2% |
| N#Cc1cc(-c2cccc(Cl)c2)ccc1N1CCC(CNCc2ccc3c(c2)CN(C2CCC(=O)NC2=O)C3=O)CC1 (stereo not shown) [Compound A103] | 8.82 |  |  |  | 6% | 0% |
| O=C1CCC(N2Cc3cc(CNCC4CCN(c5cnc(-c6cccc7ccccc67)nc5)CC4)ccc3C2=O)C(=O)N1 (stereo not shown) [Compound A64] | 8.00 |  |  |  | 0% | 5% |
| O=C1CCC(N2Cc3cc(CNCC4CCN(c5ncc(-c6cccc(Cl)c6)cc5F)CC4F)ccc3C2=O)C(=O)N1 (stereo not shown) [Compound A87] | 9.22 |  |  |  | 11% | 0% |
| COC(=O)c1cc(-c2cccc(Cl)c2)cnc1N1CCC(CNCc2ccc3c(c2)CN(C2CCC(=O)NC2=O)C3=O)CC1 (stereo not shown) [Compound A100] | > 9.70 |  |  |  | 0% | 0% |
| Cc1cccc(-c2cnc(N3CCC(CNCc4ccc5c(c4)CN(C4CCC(=O)NC4=O)C5=O)CC3)nc2)c1 (stereo not shown) [Compound A68] | > 9.70 |  |  |  | 0% | 0% |
